Test results as given in US8664221B2 (Santen Pharmaceutical Co., Ltd., priority 2008, dated 2014).

The compounds below were run on IL-6 production induced by lipopolysaccharide (LPS) in human corneal epithelial cells (HCE-T) (assay: Inhibition of LPS-induced IL-6 production in human corneal epithelial cells (GR agonist activity)). Conditions: Corneal epithelial cell, 10 μL of 100 μM test compound solution per well, 4 hours incubation, efficacy relative to DEX.
Assay type: cell-based
Description: In order to evaluate a GR agonist activity of the present compound, the inhibitory effects on the IL-6 production induced by lipopolysaccharide (LPS) in human corneal epithelial cells. IL-6 levels in the conditioned medium were measured using the HTRF human IL-6 Kit (boehringer-Ingelheim, Cat No. 62IL6PEB), and the procedure was carried out according to the protocol attached to the kit. Hereinafter, the specific method will be described.
LPS solution: After LPS was dissolved in phosphate buffer solution (hereinafter referred to as PBS(−)), the resulting solution was diluted with 10% FBS-DMEM/F12 medium, whereby a 1 μg/mL LPS solution was prepared.
After a test compound was dissolved in dimethylsulfoxide (hereinafter referred to as DMSO), the resulting solution was diluted with 10% FBS-DMEM/F12 medium, whereby a 100 μM test compound solution was prepared. A 100 μM DEX solution was prepared by the same method, and the inhibitory ratio of IL-6 production of DEX was evaluated to use for calculating efficacy (% DEX).
Used cell: SV40-immortalized human corneal epithelial cells (HCE-T) (RIKEN)
1) HCE-T cells were harvested, and seeded at 2.0×10^4 cells/0.1 mL/well in a 96-well plate.
2) After incubation overnight, the medium was removed and a 80 μL of new 10% FBS-DMEM/Ham's F12 medium was added into each well.
3) A 10 μL of test compounds solution was added into each well.
4) A 10 μL of LPS solution was added into each well.
5) As a negative control, a 10 μL of 10% FBS-DMEM/Ham's F12 medium was added into each well instead of a test compound solution and a LPS solution.
6) As a positive control, a 10 μL of 10% FBS-DMEM/Ham's F12 medium containing 1% DMSO was added into each well instead of a test compound solution.
7) After 4 hours incubation, supernatants were collected and IL-6 levels in the supernatants were quantitated using the HTRF human IL-6 Kit.
8) The inhibition ratio of IL-6 production (%) was calculated according to the following equation.
The inhibition ratio of IL-6 production (%) was calculated according to the following equation. The inhibition ratio of IL-6 production (%)=100×{1−(IL-6 level in each group−mean value of IL-6 level in negative control)/(mean value of IL-6 level in positive control−mean value of IL-6 level in negative control)} (%)
Furthermore, the inhibition ratio of IL-6 production (efficacy (% DEX)) was also calculated according to the following equation. Efficacy(% DEX)=100×{(mean value of IL-6 inhibition in compound-treated group)/(mean value of IL-6 inhibition in DEX-treated group)} (%) (Results and Discussion)

Row | Structure (SMILES) | Emax
1 | COc1cc(OS(C)(=O)=O)ccc1-c1ccc2c(c1COC(=O)c1ccc(C)s1)N(C)C(=O)C(C)(C)N2 [Compound No. 1-3, 7-(2-Methoxy-4-methylsulfonyloxyphenyl)-8-(5-methylthiophen-2-ylcarbonyloxymethyl)-1,3,3-trimethyl-3,4-dihydro-1H-quinoxalin-2-one] | 70%
2 | COc1cc(OS(=O)(=O)Cc2ccccc2Cl)ccc1-c1ccc2c(c1COc1cc(F)ccc1C)N(C)C(=O)C(C)(C)N2 [Compound No. 1-14, 7-[4-(2-Chlorobenzylsulfonyloxy)-2-methoxyphenyl]-8-(5-fluoro-2-methylphenoxymethyl)-1,3,3-trimethyl-3,4-dihydro-1H-quinoxalin-2-one] | 86%
3 | COc1cc(OS(=O)(=O)Cc2ccccc2C)ccc1-c1ccc2c(c1COc1cc(F)ccc1C)N(C)C(=O)C(C)(C)N2 [Compound No. 1-15, 8-(5-Fluoro-2-methylphenoxymethyl)-7-[2-methoxy-4-(2-methylbenzyl-sulfonyloxy)phenyl]-1,3,3-trimethyl-3,4-dihydro-IH-quinoxalin-2-one] | 88%
4 | COc1cc(OS(=O)(=O)C2CCCCC2)ccc1-c1ccc2c(c1COc1cc(F)ccc1C)N(C)C(=O)C(C)(C)N2 [Compound No. 1-17, 7-(4-Cyclohexylsulfonyloxy-2-methoxyphenyl)-8-(5-fluoro-2-methylphenoxymethyl)-1,3,3-trimethyl-3,4-dihydro-1H-quinoxalin-2-one] | 83%
5 | COc1cc(OS(=O)(=O)C2CC2)ccc1-c1ccc2c(c1COC(=O)c1ccc(C)s1)N(C)C(=O)C(C)(C)N2 [Compound No. 1-19, 7-(4-Cyclopropylsulfonyloxy-2-methoxyphenyl)-8-(5-methyl-thiophen-2-ylcarbonyloxymethyl)-1,3,3-trimethyl-3,4-dihydro-1H-quinoxalin-2-one] | 88%
6 | COc1cc(OS(=O)(=O)CCC(F)(F)F)ccc1-c1ccc2c(c1COC(=O)c1ccc(C)s1)N(C)C(=O)C(C)(C)N2 [Compound No. 1-20, 7-[2-Methoxy-4-(3,3,3-trifluoropropylsulfonyloxy)phenyl]-8-(5-methylthiophen-2-ylcarbonyloxymethyl)-1,3,3-trimethyl-3,4-dihydro-1H-quinoxalin-2-one] | 74%
7 | COc1cc(OS(=O)(=O)CC(C)C)ccc1-c1ccc2c(c1COC(=O)c1ccc(C)s1)N(C)C(=O)C(C)(C)N2 [Compound No. 1-21, 7-(4-Isobutylsulfonyloxy-2-methoxyphenyl)-8-(5-methylthiophen-2-ylcarbonyloxymethyl)-1,3,3-trimethyl-3,4-dihydro-1H-quinoxalin-2-one] | 71%
8 | COc1cc(OS(=O)(=O)C2CCCC2)ccc1-c1ccc2c(c1COC(=O)c1ccc(C)s1)N(C)C(=O)C(C)(C)N2 [Compound No. 1-24, 7-(4-Cyclopentylsulfonyloxy-2-methoxyphenyl)-8-(5-methylthiophen-2-ylcarbonyloxymethyl)-1,3,3-trimethyl-3,4-dihydro-1H-quinoxalin-2-one] | 85%
9 | COc1ccc([N+](=O)[O-])cc1OCc1c(-c2ccc(OS(=O)(=O)C3CC3)cc2OC)ccc2c1N(C)C(=O)C(C)(C)N2 [Compound No. 1-30, 7-(4-Cyclopropylsulfonyloxy-2-methoxyphenyl)-8-(2-methoxy-5-nitrophenoxymethyl)-1,3,3-trimethyl-3,4-dihydro-1H-quinoxalin-2-one] | 74%
10 | CCCS(=O)(=O)Oc1ccc(-c2ccc3c(c2COc2cc([N+](=O)[O-])ccc2OC)N(C)C(=O)C(C)(C)N3)c(OC)c1 [Compound No. 1-31, 8-(2-Methoxy-5-nitrophenoxymethyl)-7-(2-methoxy-4-propyl-sulfonyloxyphenyl)-1,3,3-trimethyl-3,4-dihydro-1H-quinoxalin-2-one] | 76%
11 | COc1cc(OS(=O)(=O)C(C)C)ccc1-c1ccc2c(c1COc1cc([N+](=O)[O-])ccc1C)N(C)C(=O)C(C)(C)N2 [Compound No. 1-35, 7-(4-Isopropylsulfonyloxy-2-methoxyphenyl)-8-(2-methyl-5-nitro-phenoxymethyl)-1,3,3-trimethyl-3,4-dihydro-1H-quinoxalin-2-one] | 79%
12 | COc1cc(OS(C)(=O)=O)ccc1-c1ccc2c(c1COc1cc([N+](=O)[O-])ccc1C)N(C)C(=O)C(C)(C)N2 [Compound No. 1-36, 7-(2-Methoxy-4-methylsulfonyloxyphenyl)-8-(2-methyl-5-nitro-phenoxymethyl)-1,3,3-trimethyl-3,4-dihydro-1H-quinoxalin-2-one] | 72%
13 | COc1cc(OS(=O)(=O)C2CCCC2)ccc1-c1ccc2c(c1COc1cc([N+](=O)[O-])ccc1C)N(C)C(=O)C(C)(C)N2 [Compound No. 1-37, 7-(4-Cyclopentylsulfonyloxy-2-methoxyphenyl)-8-(2-methyl-5-nitrophenoxymethyl)-1,3,3-trimethyl-3,4-dihydro-1H-quinoxalin-2-one] | 74%
14 | CCCS(=O)(=O)Oc1ccc(-c2ccc3c(c2COC(=O)c2ccc(C)cc2)N(C)C(=O)C(C)(C)N3)c(OC)c1 [Compound No. 1-39, 7-(2-Methoxy-4-propylsulfonyloxyphenyl)-8-(4-methylbenzoyloxy-methyl)-1,3,3-trimethyl-3,4-dihydro-1H-quinoxalin-2-one] | 80%
15 | COc1cc(OS(=O)(=O)CCCCl)ccc1-c1ccc2c(c1COc1cc(F)ccc1C)N(C)C(=O)C(C)(C)N2 [Compound No. 1-40, 7-[4-(3-Chloropropylsulfonyloxy)-2-methoxyphenyl]-8-(5-fluoro-2-methylphenoxymethyl)-1,3,3-trimethyl-3,4-dihydro-1H-quinoxalin-2-one] | 84%
16 | COc1cc(OS(=O)(=O)CCl)ccc1-c1ccc2c(c1COc1cc(F)ccc1C)N(C)C(=O)C(C)(C)N2 [Compound No. 1-41, 7-(4-Chloromethylsulfonyloxy-2-methoxyphenyl)-8-(5-fluoro-2-methylphenoxymethyl)-1,3,3-trimethyl-3,4-dihydro-1H-quinoxalin-2-one] | 85%
17 | COc1cc(OS(=O)(=O)CCCNCc2ccccc2)ccc1-c1ccc2c(c1COc1cc(F)ccc1C)N(C)C(=O)C(C)(C)N2 [Compound No. 3-1, 7-[4-(3-Benzylaminopropylsulfonyloxy)-2-methoxyphenyl]-8-(5-fluoro-2-methylphenoxymethyl)-1,3,3-trimethyl-3,4-dihydro-1H-quinoxalin-2-one] | 78%
18 | CCCNCCCS(=O)(=O)Oc1ccc(-c2ccc3c(c2COc2cc(F)ccc2C)N(C)C(=O)C(C)(C)N3)c(OC)c1 [Compound No. 3-2, 8-(5-Fluoro-2-methylphenoxymethyl)-7-[2-methoxy-4-(3-propylaminopropyl-sulfonyloxy)phenyl]-1,3,3-trimethyl-3,4-dihydro-1H-quinoxalin-2-one] | 70%
19 | COc1cc(OS(=O)(=O)CCCN2CCOCC2)ccc1-c1ccc2c(c1COc1cc(F)ccc1C)N(C)C(=O)C(C)(C)N2 [Compound No. 3-3, 8-(5-Fluoro-2-methylphenoxymethyl)-7-[2-methoxy-4-[3-(morpholin-4-yl)propylsulfonyloxy]phenyl]-1,3,3-trimethyl-3,4-dihydro-1H-quinoxalin-2-one] | 85%
